Assay results as given in patent US20100028447A1, “Intranasal, Buccal, And Sublingual Administration Of Metanicotine Analogs” (TARGACEPT, INC., priority 2007, published 2010).
“Also recorded” adds a separate entry of the source.

Assays:
[1] = in vitro; details: human, pH 7.4, Papp
Text: (§1) An in vitro model of MatTek EpiAir® tissue was used for the permeability assessment of the test articles and control compounds. The EpiAir® culture consists of cells that have been cultured to form a pseudo-stratified, highly differentiated model closely resembling the epithelial tissue of the human respiratory tract. The histological cross-sections of the cultured tissue reveal a pseudo-stratified mucociliary phenotype.
(§2) EpiAir® tissues plated in 12 well plates were pre-equilibrated for the assay by culturing them for 24 hours at 37° C. with 5% CO2 in a humidified incubator. On the day of the assay, the cultures were washed two times with Dulbeccos' Phosphate Buffered Saline (DPBS buffer) at pH 7.4, and then dosed with donor and receiver buffer applied to the apical and basolateral surfaces of the culture, respectively. The receiver buffer consisted of DPBS, at pH 7.4. The donor solution consisted of DPBS buffer containing the appropriate compounds as specified in Table 1. All treatments were performed in triplicate. The receiver buffer was sampled at 15, 30, 60, and 120 minutes, and the donor buffer was sampled at 120 minutes.
(§3) The Lucifer Yellow concentration in the receiver samples was measured using a FluoStar fluorescence plate reader (BMG Laboratories, Durham, N.C.).
(§4) The apparent permeability coefficient, Papp, was calculated as follows: […]
(§5) where: dCr/dt is the slope of the cumulative concentration in the receiver compartment versus time; Vr is the volume of the receiver compartment; A is the surface area of epithelium available for permeation; and Co is the dosing solution concentration.

[2] = tested on: cultured human respiratory epithelium; assay: Permeation across cultured human respiratory epithelium (EpiAir tissue), apical-to-basolateral Papp; details: p<0.05, two-tailed t-test, N=3
Text: as §1, §2, §3, §4, §5

| Structure (SMILES) | Papp at 120 min [1] [×10⁻⁶ cm/s] | Papp at 120 min ([1]; Treatment 1: Compound B assayed with controls, Average ± STD) [×10⁻⁶ cm/s] | Papp at 120 min ([1]; Treatment 1: Compound B assayed with controls, Rep 1) [×10⁻⁶ cm/s] | Papp at 120 min ([1]; Treatment 1: Compound B assayed with controls, Rep 2) [×10⁻⁶ cm/s] | Papp at 120 min ([1]; Treatment 1: Compound B assayed with controls, Rep 3) [×10⁻⁶ cm/s] | Papp at 120 min ([1]; Treatment 2: Compound B assayed with controls + MAO inhibitor Pargyline, Average ± STD) [×10⁻⁶ cm/s] | Papp at 120 min ([1]; Treatment 2: Compound B assayed with controls + MAO inhibitor Pargyline, Rep 1) [×10⁻⁶ cm/s] | Papp at 120 min ([1]; Treatment 2: Compound B assayed with controls + MAO inhibitor Pargyline, Rep 2) [×10⁻⁶ cm/s] | Papp at 120 min ([1]; Treatment 2: Compound B assayed with controls + MAO inhibitor Pargyline, Rep 3) [×10⁻⁶ cm/s] | Permeation (Papp) in the presence of the MAO inhibitor Pargyline compared to alone [2] |
| --- | --- | --- | --- | --- | --- | --- | --- | --- | --- | --- |
| CN[C@@H](C)C/C=C/c1cncc(OC)c1 [Compound A, (2S)-(4E)-N-methyl-5-(3-(5-methoxypyridin)yl)-4-penten-2-amine] | 25.1 |  |  |  |  |  |  |  |  |  |
| CNCC/C=C/c1cccnc1 [Compound B, N-methyl-(4-pyridin-3-yl-but-3-enyl)-amine] |  | 18.3 ± 0.28 | 18.5 | 18 | 18.4 | 25.4 ± 0.41 | 25.1 | 25.9 | 25.2 | significantly lower Papp value in the absence, than in the presence; also recorded: significant increased |
